In assay [1] the test system is Mycobacterium tuberculosis. The experiment in a line: Antimycobacterial activity against Mycobacterium tuberculosis H37Rv after 10 days by micro broth dilution method. The class given is functional. The conditions noted are these: 240 h. On the technique in general: In broth dilution the organism is exposed to a series of concentrations in liquid medium.
Assay [2] is described as follows: Cytotoxicity against human FEH cells after 72 hrs by MTT assay. The format is cell-based. A general note: Tetrazolium assays rely on reduction of a dye to a coloured formazan, in cell work by metabolically active cells.
The next assay has as its system Mycolicibacter terrae. Nature of the assay: Antimycobacterial activity against Mycobacterium terrae after 10 days by micro broth dilution method. The format is functional. The conditions noted are these: 240 h.
The next assay has as its system Mycobacterium avium. The experiment in a line: Antimycobacterial activity against Mycobacterium avium after 10 days by micro broth dilution method. The class given is functional. The settings on record: 240 h.

In brackets after ≈: the same amount, converted by molar mass.

On to `O=C(O)CCNc1[nH]cnc2ncnc1-2`, for which, in assay [1], it took 12.5 µg/mL (≈ 60.3 µM) to inhibit growth (MIC).
Take `O=C(O)CCCNc1ncnc2[nH]cnc12`: inhibition of growth in assay [1] (MIC) required 12.5 µg/mL (≈ 56.5 µM).
Turning to `CC(=O)Nc1nc(N[C@H](C(=O)OC(C)(C)C)C(C)C)c2nc[nH]c2n1`, in assay [1], it took 12.5 µg/mL (≈ 35.9 µM) to inhibit growth (MIC).
As to `COC(=O)[C@H](CCSC)NC(=O)CNc1ncnc2[nH]cnc12`, the MIC (as a rule, the smallest concentration in the dilution series that meets the test's criterion for growth inhibition) in assay [1] came out at 12.5 µg/mL (≈ 36.9 µM).
The same measure, in the same setting: for `C[C@H](NC(=O)CNc1nc(N)nc2[nH]cnc12)C(=O)O.O` the value was 6.25 µg/mL; for `CC(C)C[C@H](NC(=O)CNc1ncnc2[nH]cnc12)C(=O)O.O`, 12.5 µg/mL.
Consider `C[C@H](Nc1nc(N)nc2[nH]cnc12)C(=O)O`, for which the MIC in assay [1] amounted to 12.5 µg/mL (≈ 56.3 µM).
Consider `CC(=O)Nc1nc(N[C@@H](C)C(=O)OC(C)(C)C)c2nc[nH]c2n1`, for which, in assay [1], the MIC stood at 12.5 µg/mL (≈ 39 µM).
For `CC(=O)Nc1nc(N2CCC[C@H]2C(=O)OC(C)(C)C)c2nc[nH]c2n1`, the minimum inhibitory concentration (MIC) (in assay [1]; against Mycolicibacter terrae; against Mycobacterium avium) was 6.25 µg/mL (≈ 18 µM) throughout. Also, the IC50 (usually the concentration needed to halve the response being measured) in assay [2] is more than 50 µM.
On to `C[C@H](NC(=O)CNc1ncnc2[nH]cnc12)C(=O)O.O`, for which the minimum inhibitory concentration (MIC) in assay [1] turned out to be 12.5 µg/mL.
`CSCC[C@H](NC(=O)CNc1ncnc2[nH]cnc12)C(=O)O.O` yielded an MIC in assay [1] of 12.5 µg/mL.
The compound `CC(=O)Nc1nc(N[C@@H](Cc2ccccc2)C(=O)OC(C)(C)C)c2nc[nH]c2n1` returned a minimal inhibitory concentration (MIC) in assay [1] of 12.5 µg/mL (≈ 31.5 µM).
On to `CC(=O)Nc1nc(NCC(=O)O)c2nc[nH]c2n1`, for which the minimum inhibitory concentration (MIC) (in assay [1]; with Mycolicibacter terrae; with Mycobacterium avium) was 0.7 µg/mL (≈ 2.8 µM) throughout. Moreover, the 50% inhibitory concentration (IC50) in assay [2] is more than 50 µM.
In the case of `CC(C)[C@H](NC(=O)CNc1nc(N)nc2[nH]cnc12)C(=O)O.O.O`, in assay [1], it took 12.5 µg/mL to inhibit growth (MIC).
For the compound `O.O=C(CNc1ncnc2[nH]cnc12)N[C@@H](Cc1ccccc1)C(=O)O`, in assay [1], inhibition of growth (MIC) required 3.1 µg/mL. In addition, the IC50 in assay [2] was more than 50 µM.
Take `CC(C)[C@H](Nc1nc(N)nc2[nH]cnc12)C(=O)O`: the MIC (in assay [1]; against Mycolicibacter terrae; against Mycobacterium avium) was 6.25 µg/mL (≈ 25 µM) each time. The compound also displayed an IC50 in assay [2] of more than 50 µM.
On to `COC(=O)[C@H](CC(C)C)NC(=O)CNc1ncnc2[nH]cnc12`, for which inhibition of growth in assay [1] (MIC) required 12.5 µg/mL (≈ 39 µM).
As for `COC(=O)[C@@H](NC(=O)CNc1nc(NC(C)=O)nc2[nH]cnc12)C(C)C`, inhibition of growth in assay [1] (MIC) required 12.5 µg/mL (≈ 34.4 µM).
In the case of `CSCC[C@H](NC(=O)CNc1nc(N)nc2[nH]cnc12)C(=O)O.O`, the MIC (in assay [1]; in the assay with Mycolicibacter terrae; with Mycobacterium avium) was 3.1 µg/mL throughout. Also, in assay [2], the IC50 was more than 50 µM.
`COC(=O)[C@H](C)NC(=O)CNc1ncnc2[nH]cnc12` gave an MIC in assay [1] of 12.5 µg/mL (≈ 44.9 µM).
The compound `COC(=O)[C@H](C)NC(=O)CNc1nc(NC(C)=O)nc2[nH]cnc12.O` gave a minimal inhibitory concentration (MIC) in assay [1] of 12.5 µg/mL.
On to `Nc1nc(NCC(=O)N[C@@H](CCC(=O)O)C(=O)O)c2nc[nH]c2n1`, for which the MIC in assay [1] turned out to be 0.7 µg/mL (≈ 2.08 µM); against Mycolicibacter terrae it was 0.35 µg/mL (≈ 1.04 µM); against Mycobacterium avium, 0.35 µg/mL (≈ 1.04 µM). Further, in assay [2], the half-maximal inhibitory concentration (IC50) was more than 50 µM.
With `Nc1nc(NCC(=O)N[C@@H](CC(=O)O)C(=O)O)c2nc[nH]c2n1`, 12.5 µg/mL (≈ 38.7 µM) was the least that counted as inhibitory in assay [1] (MIC).
Take `O=C(O)CNc1ncnc2[nH]cnc12`: the lowest concentration to inhibit growth in assay [1] (MIC) was 6.25 µg/mL (≈ 32.4 µM).
`COC(=O)CC[C@H](NC(=O)CNc1nc(NC(C)=O)nc2[nH]cnc12)C(=O)OC` came in with a minimal inhibitory concentration (MIC) in assay [1] of 12.5 µg/mL (≈ 30.7 µM).
In turn, `Nc1nc(NCC(=O)N[C@@H](Cc2ccccc2)C(=O)O)c2nc[nH]c2n1.O.O` had an MIC in assay [1] of 6.25 µg/mL.
The compound `COC(=O)[C@H](CC(C)C)NC(=O)CNc1nc(NC(C)=O)nc2[nH]cnc12` registered an MIC in assay [1] of 12.5 µg/mL (≈ 33.1 µM).
As to `COC(=O)[C@H](Cc1ccccc1)NC(=O)CNc1nc(NC(C)=O)nc2[nH]cnc12`, the minimal inhibitory concentration (MIC) in assay [1] worked out at 12.5 µg/mL (≈ 30.4 µM).
Take `COC(=O)[C@H](CCSC)NC(=O)CNc1nc(NC(C)=O)nc2[nH]cnc12`: the MIC in assay [1] was determined as 3.1 µg/mL (≈ 7.84 µM); in the assay with Mycolicibacter terrae, 1.5 µg/mL (≈ 3.79 µM); in the assay on Mycobacterium avium, 3.1 µg/mL (≈ 7.84 µM). In assay [2], the IC50 is more than 50 µM.
`Nc1nc(N[C@@H](Cc2ccccc2)C(=O)O)c2nc[nH]c2n1` registered a minimal inhibitory concentration (MIC) in assay [1] of 12.5 µg/mL (≈ 41.9 µM).
The compound `CC(C)[C@H](NC(=O)CNc1ncnc2[nH]cnc12)C(=O)O.O` yielded a minimum inhibitory concentration (MIC) in assay [1] of 12.5 µg/mL.
Turning to `Nc1nc(N2CCC[C@H]2C(=O)O)c2nc[nH]c2n1`, the lowest concentration to inhibit growth in assay [1] (MIC) was 12.5 µg/mL (≈ 50.4 µM).
Regarding `COC(=O)CNc1nc(N)nc2[nH]cnc12.Cl.Cl`, the MIC (in assay [1]; against Mycolicibacter terrae; in the assay on Mycobacterium avium) was 6.25 µg/mL each time. The half-inhibitory concentration (IC50) in assay [2] was more than 50 µM.
With `COC(=O)C[C@H](NC(=O)CNc1nc(NC(C)=O)nc2[nH]cnc12)C(=O)OC`, it took 12.5 µg/mL (≈ 31.8 µM) to inhibit growth in assay [1] (MIC).
In assay [1], `O=C(O)CCCCCNc1ncnc2[nH]cnc12` came in with a minimal inhibitory concentration (MIC) of 12.5 µg/mL (≈ 50.1 µM).
`Nc1nc(NCC(=O)O)c2nc[nH]c2n1` registered a minimal inhibitory concentration (MIC) in assay [1] of 12.5 µg/mL (≈ 60 µM).
`COC(=O)[C@@H](NC(=O)CNc1ncnc2[nH]cnc12)C(C)C` returned an MIC in assay [1] of 12.5 µg/mL (≈ 40.8 µM).
As to `CC(C)C[C@H](NC(=O)CNc1nc(N)nc2[nH]cnc12)C(=O)O.O`, in assay [1], the MIC amounted to 12.5 µg/mL.
As to `CC(=O)Nc1nc(N[C@@H](CC(=O)OC(C)(C)C)C(=O)OC(C)(C)C)c2nc[nH]c2n1`, in assay [1], the MIC is 12.5 µg/mL (≈ 29.7 µM).
With `O.O=C(O)CC[C@H](NC(=O)CNc1ncnc2[nH]cnc12)C(=O)O`, the MIC (in assay [1]; in the assay with Mycolicibacter terrae; against Mycobacterium avium) was 0.7 µg/mL each time. Further, the IC50 in assay [2] was more than 50 µM.
Consider `COC(=O)[C@H](Cc1ccccc1)NC(=O)CNc1ncnc2[nH]cnc12`, for which the minimal inhibitory concentration (MIC) (in assay [1]; with Mycolicibacter terrae; in the assay with Mycobacterium avium) was 1.5 µg/mL (≈ 4.23 µM) in each case. The compound further showed a half-inhibitory concentration (IC50) in assay [2] of more than 50 µM.
In assay [1], `COC(=O)CC[C@H](NC(=O)CNc1ncnc2[nH]cnc12)C(=O)OC` showed an MIC of 12.5 µg/mL (≈ 35.7 µM).
In the case of `NNC(=O)c1ccncc1` [ISONIAZID], the MIC (in assay [1]; with Mycolicibacter terrae; with Mycobacterium avium) was 0.1 µg/mL (≈ 0.729 µM) each time.
Turning to `CC1COc2c(N3CCN(C)CC3)c(F)cc3c(=O)c(C(=O)O)cn1c23` (stereo unspecified) [OFLOXACIN], the MIC (in assay [1]; against Mycolicibacter terrae; with Mycobacterium avium) was 0.1 µg/mL (≈ 0.277 µM) throughout.

The values above are taken from ChEMBL document CHEMBL3804804, “Synthesis and antimycobacterial activity of N-(2-aminopurin-6-yl) and N-(purin-6-yl) amino acids and dipeptides” (Bioorg Med Chem Lett, 2016).
